Molecules are shown by their SMILES. Where two headings read alike, the source gives them in different places.

The AUC(0-t) is the area under the concentration-time curve up to a stated or last time point. One may read the Cmax as the maximum level reached in the sampled fluid or tissue. What is called Tmax is the time from dosing to the highest level. Usually half-life stands for how long it takes for the measured level to halve. The term EC50 denotes the concentration at which the effect is half-maximal.

Data set [1] addresses T1, P-gp (Homo sapiens, UniProt P08183). The data set is described as follows: Vanadate-sensitive P-gp ATPase activity assay (P-gp-Glo). The note with it: 70 µM.
Procedure: (A) Effect of EC31 on vanadate-sensitive P-gp ATPase was studied. EC31, C25, and EGCG at different concentrations (10, 50, and 70 µM) were incubated with recombinant human P-gp microsomes and MgATP with or without sodium vanadate. After stopping the reaction, the remaining ATP level was determined by measuring the luciferase-generated luminescent signal. Vanadate-inhibitable P-gp ATPase activity was determined by calculating the luminescence signal in the samples with or without sodium vanadate. […] P-gp ATPase activity caused by compounds was normalized to basal P-gp ATPase activity (human P-gp microsome treated with DMSO) and was presented as fold change. A dashed line at 1.0-fold change represented the basal P-gp ATPase activity. […] The values in this figure were presented as mean ± standard error of mean. N = 3 independent experiments.
P-gp ATPase activity was measured with P-gp-Glo assay system (Promega, #V3601) with human P-gp membrane vesicles as reported previously [32]. […] The reaction was initiated by adding MgATP and was then incubated at 37 °C for 1 h. […] The remaining ATP signal of luminescence was measured with a Clariostar microplate reader (BMG Labtech, Ortenberg, Germany). Vanadate-inhibitable P-gp ATPase activity was determined by calculating the luminescence signal in the samples with or without sodium vanadate.
Data set [2] can be described thus: Pharmacokinetics of methylated catechin derivatives in plasma. Type of data set: in vivo, BALB/c mice. To be noted: BALB/c, mouse; for AUC(0-inf): read-out: AUC0-infinity (converted). The procedure:
Figure 4 Pharmacokinetics of methylated catechin derivatives and their effects on the PK of PTX. BALB/c mice were i.v. injected with 10 mg/kg or i.p. injected with 30 mg/kg of modulators. At 10, 30, 60, 180, 420, 840, and 1080 min postadministration, animals were sacrificed to collect their blood, and then the plasma concentration of modulator was determined using UPLC-MS/MS. The % of bioavailability of each modulator injected through i.p. injection route was calculated by comparing it to its plasma level when injected via i.v. injection. […] (E) Pharmacokinetic (PK) profiles of 4 potent methylated catechin derivatives were summarized. (F) The effect of modulators (GC51, EC31, or C25) on the PK of PTX was firstly determined through i.p. injection of modulator at 30 mg/kg 1 h prior to i.v. injection of 12 mg/kg PTX. At 10, 30, 60, 120, 240, and 420 min postadministration of PTX, animals were sacrificed. Plasma level of PTX was quantified through LC/MSMS. The dashed line indicates the corresponding EC50 of modulator in vitro for reversing PTX resistance. […] There were 3 mice at each time point. All pharmacokinetic parameters were calculated with the pharmacokinetic software Summit® PK solution. Two-tailed test was conducted for the AUC value of PTX alone and cotreatment. […] N.S. = not significant. / = not applicable.
In group 1, BALB/c mice were injected intravenously (i.v.) with 10 mg/kg of modulator, and their blood was collected at 10, 30, 60, 120, 240, and 480 min postadministration. In group 2, BALB/c mice were injected intraperitoneally (i.p.) with 30 mg/kg of modulator, and their blood was collected at 10, 30, 60, 180, 420, 840, and 1080 min postadministration.
The pharmacokinetics of PTX was studied with or without the coadministered modulator. PTX (12 mg/kg i.v.) alone was injected into the BALB/c mice. For the combination study, modulator (30 mg/kg i.p.) was injected 1 h before injecting PTX (12 mg/kg i.v.). The blood was collected at 10, 30, 60, 120, 240, and 420 min after PTX administration. Blood samples were spun at 14,000 rpm for 10 min at 4 °C to collect plasma supernatant. Plasma concentration of methylated catechin derivatives or PTX was determined through UPLC-QQQ-MS as described in Section 4.9. Pharmacokinetic parameters were analyzed with PK Solutions 2.0 (Summit Research Service, Ashland, OH, USA).

The target of data set [3] is T1, P-gp. In words: EC50 for reversing drug resistance in K562/P-gp cells (cell proliferation assay). To be noted: EC50 for Reversing MDR.
Source text: EC50 was defined as the concentration at which the modulator can reduce the IC50 of an anticancer drug by half in the P-gp-overexpressing cell lines. […] The P-gp-modulating activity of methylated catechin derivatives was further studied by measuring the EC50. […] Three P-gp-overexpressing cell lines were employed, including breast cancer cell line LCC6MDR, mouse leukemia cell line P388ADR, and human leukemia cell line K562/P-gp. The anticancer drugs tested included DOX, PTX, and VCR. All values were presented as mean ± standard error of mean. N = 3–6 independent experiments.
About 6500 cells of LCC6MDR or 10,000 cells of P388ADR or K562/P-gp were seeded to each well of 96-well plate and were then incubated at 37 °C overnight. […] Cell viability was determined using CellTiter 96 AQueous Assay (Promega, Madison, WI, USA, #G1111) as reported previously [38]. The % of cell survival, IC50 of anticancer drugs towards the cell line, and EC50 of modulators were analyzed using nonlinear regression in Prism 5.0.
Data set [4] has as its target T1, P-gp. On the set-up: expressed in transfected cells; host or cells: MDA435/LCC6MDR (human breast cancer line, gift of Dr. Robert Clarke). The note with it: Cpds at 1 μM; IC50 of PTX without/with modulator; cited from earlier work.
Data set [5] deals with T1, P-gp. The data set is described as follows: Intracellular EC31 or PTX accumulation in LCC6 versus LCC6MDR cells. The data set is classed as cell-based. On the set-up: expressed in transfected cells; host or cells: MDA435/LCC6MDR (human breast cancer line, gift of Dr. Robert Clarke). To be noted: from accumulation and efflux in cells with or without P-gp. The text has this:
N = 3 independent experiments.

Data set [6] concerns LCC6MDR xenograft. In words: In vivo PTX and EC31 accumulation in LCC6MDR tumor. The procedure:
(A) In vivo toxicity study of EC31 alone and of its combination with PTX was conducted. BALB/c mice were randomized into five groups with five mice in each group. Body weight of BALB/c mice during treatments was measured every two days. The treatment groups included (1) solvent control (5% NMP + 5% Cremophor EL + 90% PBS to dissolve EC31 and 5% Ethanol + 5% Cremophor EL + 90% PBS to dissolve PTX), (2) PTX (12 mg/kg i.v.), (3) EC31 (30 mg/kg i.p.), (4) EC31 (30 mg/kg i.p.) + PTX (12 mg/kg i.v.), or (5) EC31 (60 mg/kg i.p.) + PTX (12 mg/kg i.v.). The administration was performed every other day 12 times (q2d x 12). The loss of body weight or appetite and treatment-related mortality were monitored and defined as toxicity. (B) BALB/c nude mice were subcutaneously xenografted with LCC6MDR. When the tumor reached 150–300 mm^3, the mice were randomized and administered once with (1) EC31 alone, (2) PTX alone, or (3) EC31 + PTX. […] The tumors were taken out, and their weights were measured. Intratumor concentration of EC31 or PTX was measured using UPLC-MS/MS, and the actual concentration of PTX or EC31 was normalized to the tumor weight. […] Tumor volume and body weight were monitored throughout the treatment period. […] The tumor volume, tumor weight, and doubling time were measured. The number of animal deaths was recorded during the treatment period. […]

T1 sequence (P08183 whole entry): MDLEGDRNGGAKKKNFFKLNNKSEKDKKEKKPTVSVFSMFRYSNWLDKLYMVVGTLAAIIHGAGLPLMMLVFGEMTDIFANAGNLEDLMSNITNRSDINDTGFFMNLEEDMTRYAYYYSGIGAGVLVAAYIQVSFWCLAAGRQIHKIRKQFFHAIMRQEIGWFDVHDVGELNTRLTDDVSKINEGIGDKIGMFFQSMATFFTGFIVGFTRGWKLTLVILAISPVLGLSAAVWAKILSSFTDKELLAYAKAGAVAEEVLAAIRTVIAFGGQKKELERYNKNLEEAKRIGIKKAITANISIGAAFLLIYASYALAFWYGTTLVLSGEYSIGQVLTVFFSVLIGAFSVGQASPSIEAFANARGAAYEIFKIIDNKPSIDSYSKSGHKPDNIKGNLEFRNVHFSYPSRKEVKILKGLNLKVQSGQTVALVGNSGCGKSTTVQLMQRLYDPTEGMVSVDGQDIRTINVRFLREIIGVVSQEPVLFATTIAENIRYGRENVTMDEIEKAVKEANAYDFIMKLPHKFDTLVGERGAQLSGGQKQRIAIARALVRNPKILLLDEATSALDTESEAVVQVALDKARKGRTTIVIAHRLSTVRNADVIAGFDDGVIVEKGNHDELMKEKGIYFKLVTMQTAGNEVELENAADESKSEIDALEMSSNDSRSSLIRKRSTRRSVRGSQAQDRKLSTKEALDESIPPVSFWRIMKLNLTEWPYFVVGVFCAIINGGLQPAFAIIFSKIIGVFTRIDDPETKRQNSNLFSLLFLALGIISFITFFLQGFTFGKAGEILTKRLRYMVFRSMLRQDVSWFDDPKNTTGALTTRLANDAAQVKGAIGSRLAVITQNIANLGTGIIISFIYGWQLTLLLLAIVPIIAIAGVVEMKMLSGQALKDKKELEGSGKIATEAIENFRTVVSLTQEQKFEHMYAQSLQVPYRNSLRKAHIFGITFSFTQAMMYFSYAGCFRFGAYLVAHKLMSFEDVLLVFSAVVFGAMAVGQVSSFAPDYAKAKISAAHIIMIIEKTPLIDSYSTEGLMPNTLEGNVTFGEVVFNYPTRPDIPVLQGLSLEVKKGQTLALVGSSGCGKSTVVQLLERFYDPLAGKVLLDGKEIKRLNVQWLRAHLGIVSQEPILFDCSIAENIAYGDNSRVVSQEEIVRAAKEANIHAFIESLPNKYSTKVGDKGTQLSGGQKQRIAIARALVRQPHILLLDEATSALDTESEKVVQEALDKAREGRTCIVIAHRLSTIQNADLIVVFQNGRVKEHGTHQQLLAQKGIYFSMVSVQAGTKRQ

Consider `COc1cc(OC)c2c(c1)O[C@H](c1ccc(OC)c(OC)c1)[C@H](OC(=O)c1ccc(F)c(NC(=O)c3cc(OC)c(OC)c(OC)c3)c1)C2` [EC31], for which the “P-gp ATPase activity, fold change relative to basal” value in data set [1] is at most 2.1 fold. Also, in data set [2] (ip, 30 mg/kg), the AUC(0-t) was 17800 ng·h/mL, the peak concentration (Cmax) worked out at 5610 ng/mL, the time of peak concentration (Tmax) is 1 h and the half-life is 3.33 h. Besides, the AUC(0-inf) in data set [2] (ip, 30 mg/kg) is 18400 ng·h/mL. Further, in data set [2] (iv, 10 mg/kg), the AUC(0-t) is 7240 ng·h/mL, the half-life is 0.912 h and the AUC(0-inf) is 7290 ng·h/mL. Also, in data set [3] (DOX Resistance, K562/P-gp, concentration that reduces IC50 of DOX by half), the EC50 was 93 ± 33 nM. Also, in data set [3] (VCR Resistance, K562, concentration that reduces IC50 of VCR by half, column head prints K562), the half-maximal effective concentration (EC50) stood at 37 ± 10 nM. Besides, in data set [4], the “LCC6MDR P-gp-modulating activity RF (relative fold)” value was 69.3. Moreover, in data set [5], the “P-gp transport substrate status” value is “not a transport substrate of P-gp”. In data set [6] (EC31 30 mg/kg i.p. + PTX 12 mg/kg i.v., at 180 min), the “increase of intratumor PTX level compared to PTX alone” value was found to be 6 fold. The “time intratumor EC31 is maintained above its in vitro EC50 (94 nM)” value in data set [6] (EC31 alone 30 mg/kg i.p., LCC6MDR xenograft) was 420 min.

These data come from publication PMC10002220, “In Vivo Reversal of P-Glycoprotein-Mediated Drug Resistance in a Breast Cancer Xenograft and in Leukemia Models Using a Novel, Potent, and Nontoxic Epicatechin EC31” (International Journal of Molecular Sciences, 2023).
